Earlier results as cited in patent publication US11304902B2, “Pharmaceutical compositions, preparation and uses thereof” (CURADIGM SAS, priority 2014, dated 2022).
Entries after “also recorded” stand apart in the source; their conditions may differ. Where two headings read alike, the source gives them in different places.

Experiments:
Conditions in all cases: human CYP enzyme
[1] = biological target: T1, CYP1A1 (Homo sapiens, UniProt P04798)
T1 sequence (P04798 1-512): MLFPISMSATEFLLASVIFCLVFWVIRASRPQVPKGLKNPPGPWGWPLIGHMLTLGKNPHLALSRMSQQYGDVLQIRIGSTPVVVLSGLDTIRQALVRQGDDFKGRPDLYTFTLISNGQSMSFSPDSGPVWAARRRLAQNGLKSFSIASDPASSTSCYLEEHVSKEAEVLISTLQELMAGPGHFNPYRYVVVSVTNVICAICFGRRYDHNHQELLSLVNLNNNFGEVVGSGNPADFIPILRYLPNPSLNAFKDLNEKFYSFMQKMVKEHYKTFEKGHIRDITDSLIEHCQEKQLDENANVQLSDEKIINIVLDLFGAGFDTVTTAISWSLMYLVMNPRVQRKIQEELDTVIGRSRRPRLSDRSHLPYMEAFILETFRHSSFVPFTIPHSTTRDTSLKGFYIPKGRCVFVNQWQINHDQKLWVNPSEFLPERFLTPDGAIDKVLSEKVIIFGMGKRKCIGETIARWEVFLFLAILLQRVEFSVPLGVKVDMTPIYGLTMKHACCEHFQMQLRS

[2] = biological target: CYP2C9 (Homo sapiens, UniProt P11712)
CYP2C9, sequence (P11712 whole entry): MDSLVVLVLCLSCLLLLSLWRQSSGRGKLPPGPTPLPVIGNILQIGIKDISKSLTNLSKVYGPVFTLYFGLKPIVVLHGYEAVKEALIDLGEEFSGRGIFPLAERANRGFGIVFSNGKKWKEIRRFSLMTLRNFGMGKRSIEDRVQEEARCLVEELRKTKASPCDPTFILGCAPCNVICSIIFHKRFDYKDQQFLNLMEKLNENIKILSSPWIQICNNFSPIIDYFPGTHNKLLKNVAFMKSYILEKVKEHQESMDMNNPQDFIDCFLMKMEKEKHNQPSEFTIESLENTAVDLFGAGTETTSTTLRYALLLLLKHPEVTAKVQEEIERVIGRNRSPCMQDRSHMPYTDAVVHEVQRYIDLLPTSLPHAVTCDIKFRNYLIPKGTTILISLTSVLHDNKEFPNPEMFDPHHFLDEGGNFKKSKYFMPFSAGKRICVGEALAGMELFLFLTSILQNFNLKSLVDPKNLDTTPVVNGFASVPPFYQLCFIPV

[3] = biological target: T2, CYP2B6 (Homo sapiens, UniProt P20813)
T2 sequence (P20813 1-491): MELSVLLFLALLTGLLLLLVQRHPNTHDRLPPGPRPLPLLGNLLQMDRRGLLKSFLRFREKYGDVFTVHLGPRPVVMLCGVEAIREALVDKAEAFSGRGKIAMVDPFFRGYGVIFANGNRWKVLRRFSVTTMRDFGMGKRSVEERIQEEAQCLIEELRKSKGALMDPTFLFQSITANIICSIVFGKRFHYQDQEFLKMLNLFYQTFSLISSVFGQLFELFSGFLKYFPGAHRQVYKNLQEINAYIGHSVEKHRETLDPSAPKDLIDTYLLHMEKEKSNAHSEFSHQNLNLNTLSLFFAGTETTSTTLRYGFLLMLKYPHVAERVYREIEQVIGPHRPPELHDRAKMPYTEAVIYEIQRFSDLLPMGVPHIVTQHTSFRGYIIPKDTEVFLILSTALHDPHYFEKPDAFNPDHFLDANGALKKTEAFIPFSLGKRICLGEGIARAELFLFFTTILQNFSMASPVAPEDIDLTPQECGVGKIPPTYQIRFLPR

[4] = biological target: CYP2C19 (Homo sapiens, UniProt P33261)
CYP2C19, sequence (P33261 whole entry): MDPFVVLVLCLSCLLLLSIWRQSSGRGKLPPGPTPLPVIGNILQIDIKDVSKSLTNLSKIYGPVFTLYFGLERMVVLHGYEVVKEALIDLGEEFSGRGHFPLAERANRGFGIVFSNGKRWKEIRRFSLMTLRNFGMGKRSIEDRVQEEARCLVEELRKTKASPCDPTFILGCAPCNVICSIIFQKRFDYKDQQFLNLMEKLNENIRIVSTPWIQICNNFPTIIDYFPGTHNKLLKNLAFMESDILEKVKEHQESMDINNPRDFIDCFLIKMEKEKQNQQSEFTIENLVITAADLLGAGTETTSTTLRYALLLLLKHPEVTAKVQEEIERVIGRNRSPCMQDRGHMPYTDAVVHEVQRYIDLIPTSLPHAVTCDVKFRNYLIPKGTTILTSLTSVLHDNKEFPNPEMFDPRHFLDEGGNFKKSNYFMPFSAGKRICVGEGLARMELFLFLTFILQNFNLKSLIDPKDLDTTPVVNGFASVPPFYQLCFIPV

[5] = biological target: CYP2D6 (Homo sapiens, UniProt P10635)
CYP2D6, sequence (P10635 whole entry): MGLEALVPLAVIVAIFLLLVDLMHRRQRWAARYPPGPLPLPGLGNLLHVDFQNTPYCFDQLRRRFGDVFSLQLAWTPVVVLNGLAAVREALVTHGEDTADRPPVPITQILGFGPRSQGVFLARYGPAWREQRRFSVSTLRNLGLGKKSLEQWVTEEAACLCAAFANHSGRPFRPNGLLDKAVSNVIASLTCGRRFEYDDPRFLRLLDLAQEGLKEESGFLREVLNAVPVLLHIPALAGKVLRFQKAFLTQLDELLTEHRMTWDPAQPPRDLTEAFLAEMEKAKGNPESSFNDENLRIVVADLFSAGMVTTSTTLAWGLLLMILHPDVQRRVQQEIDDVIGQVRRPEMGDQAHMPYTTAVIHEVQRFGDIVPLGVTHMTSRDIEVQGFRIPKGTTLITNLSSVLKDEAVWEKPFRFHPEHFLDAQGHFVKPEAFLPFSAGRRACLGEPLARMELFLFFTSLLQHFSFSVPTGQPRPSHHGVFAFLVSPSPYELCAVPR

[6] = biological target: T3, CYP11B1 (Homo sapiens, UniProt P15538)
T3 sequence (P15538 25-503): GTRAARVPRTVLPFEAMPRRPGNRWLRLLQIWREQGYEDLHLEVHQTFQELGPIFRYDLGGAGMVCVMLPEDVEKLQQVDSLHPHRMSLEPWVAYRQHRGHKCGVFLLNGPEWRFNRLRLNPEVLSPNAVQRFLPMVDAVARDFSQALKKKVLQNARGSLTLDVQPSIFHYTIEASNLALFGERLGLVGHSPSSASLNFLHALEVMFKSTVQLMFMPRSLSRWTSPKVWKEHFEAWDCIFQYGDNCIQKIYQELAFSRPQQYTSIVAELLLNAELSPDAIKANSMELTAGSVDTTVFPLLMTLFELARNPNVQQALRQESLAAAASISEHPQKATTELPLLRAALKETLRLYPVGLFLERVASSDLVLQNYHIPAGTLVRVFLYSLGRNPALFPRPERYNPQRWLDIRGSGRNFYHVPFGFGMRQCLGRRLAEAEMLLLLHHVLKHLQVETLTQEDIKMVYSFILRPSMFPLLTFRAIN

[7] = biological target: T4, CYP1A2 (Homo sapiens, UniProt P05177)
T4 sequence (P05177 1-516): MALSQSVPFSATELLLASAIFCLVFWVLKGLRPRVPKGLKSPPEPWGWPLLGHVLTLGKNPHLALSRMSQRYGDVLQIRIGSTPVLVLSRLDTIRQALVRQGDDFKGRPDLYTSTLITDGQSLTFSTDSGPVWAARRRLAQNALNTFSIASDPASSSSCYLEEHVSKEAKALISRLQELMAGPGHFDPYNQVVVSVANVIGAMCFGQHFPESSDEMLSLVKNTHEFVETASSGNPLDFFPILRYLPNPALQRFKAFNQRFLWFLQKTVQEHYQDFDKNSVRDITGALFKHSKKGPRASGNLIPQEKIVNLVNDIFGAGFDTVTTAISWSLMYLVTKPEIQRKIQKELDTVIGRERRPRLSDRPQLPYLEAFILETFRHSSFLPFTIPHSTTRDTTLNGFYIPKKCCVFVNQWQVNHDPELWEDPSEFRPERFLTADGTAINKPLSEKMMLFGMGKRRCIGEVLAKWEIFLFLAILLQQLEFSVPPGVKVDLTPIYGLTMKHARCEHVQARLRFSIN

[8] = biological target: T5, CYP2C8 (Homo sapiens, UniProt P10632)
T5 sequence (P10632 1-490): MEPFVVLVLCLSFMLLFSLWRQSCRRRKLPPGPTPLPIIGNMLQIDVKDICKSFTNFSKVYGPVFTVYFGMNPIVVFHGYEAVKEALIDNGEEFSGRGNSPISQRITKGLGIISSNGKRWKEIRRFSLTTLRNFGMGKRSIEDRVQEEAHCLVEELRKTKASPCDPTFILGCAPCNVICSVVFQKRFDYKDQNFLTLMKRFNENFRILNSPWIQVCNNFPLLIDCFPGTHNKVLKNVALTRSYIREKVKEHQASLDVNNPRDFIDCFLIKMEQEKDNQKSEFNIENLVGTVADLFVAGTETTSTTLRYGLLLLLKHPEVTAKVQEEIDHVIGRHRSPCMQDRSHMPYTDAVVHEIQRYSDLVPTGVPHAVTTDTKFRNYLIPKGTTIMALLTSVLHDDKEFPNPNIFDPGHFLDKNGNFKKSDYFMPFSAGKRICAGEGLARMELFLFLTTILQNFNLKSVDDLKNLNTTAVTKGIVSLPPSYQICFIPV

[9] = biological target: CYP3A4 (Homo sapiens, UniProt P08684)
CYP3A4, sequence (P08684 whole entry): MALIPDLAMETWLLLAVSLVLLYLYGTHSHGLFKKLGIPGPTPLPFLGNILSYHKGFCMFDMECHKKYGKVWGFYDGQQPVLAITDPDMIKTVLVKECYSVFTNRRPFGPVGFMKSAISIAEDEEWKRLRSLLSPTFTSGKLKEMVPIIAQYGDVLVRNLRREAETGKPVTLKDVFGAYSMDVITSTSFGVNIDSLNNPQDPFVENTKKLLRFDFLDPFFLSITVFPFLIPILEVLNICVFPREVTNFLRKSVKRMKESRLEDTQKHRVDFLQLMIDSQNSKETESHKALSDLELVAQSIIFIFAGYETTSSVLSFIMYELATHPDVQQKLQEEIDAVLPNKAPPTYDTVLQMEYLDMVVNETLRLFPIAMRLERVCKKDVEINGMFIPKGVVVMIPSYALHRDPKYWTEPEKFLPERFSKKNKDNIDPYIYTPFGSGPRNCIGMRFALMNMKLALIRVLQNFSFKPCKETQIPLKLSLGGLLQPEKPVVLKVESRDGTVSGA

[10] = biological target: T6, CYP19 (Homo sapiens, UniProt P11511)
T6 sequence (P11511 1-503): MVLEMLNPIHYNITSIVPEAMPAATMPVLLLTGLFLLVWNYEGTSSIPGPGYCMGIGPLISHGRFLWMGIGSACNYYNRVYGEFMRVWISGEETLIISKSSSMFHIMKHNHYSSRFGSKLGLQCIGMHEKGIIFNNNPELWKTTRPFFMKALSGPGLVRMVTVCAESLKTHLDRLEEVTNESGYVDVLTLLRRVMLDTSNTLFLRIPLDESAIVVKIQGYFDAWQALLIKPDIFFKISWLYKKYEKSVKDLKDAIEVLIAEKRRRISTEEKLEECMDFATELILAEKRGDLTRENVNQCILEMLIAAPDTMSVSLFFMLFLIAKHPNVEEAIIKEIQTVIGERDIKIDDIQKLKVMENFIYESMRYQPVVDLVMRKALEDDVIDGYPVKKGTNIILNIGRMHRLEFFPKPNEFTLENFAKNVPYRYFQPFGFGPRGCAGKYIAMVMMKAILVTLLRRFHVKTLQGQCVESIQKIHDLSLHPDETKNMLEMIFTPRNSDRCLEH

[11] = biological target: T7, CYP2C18 (Homo sapiens, UniProt P33260)
T7 sequence (P33260 26-490): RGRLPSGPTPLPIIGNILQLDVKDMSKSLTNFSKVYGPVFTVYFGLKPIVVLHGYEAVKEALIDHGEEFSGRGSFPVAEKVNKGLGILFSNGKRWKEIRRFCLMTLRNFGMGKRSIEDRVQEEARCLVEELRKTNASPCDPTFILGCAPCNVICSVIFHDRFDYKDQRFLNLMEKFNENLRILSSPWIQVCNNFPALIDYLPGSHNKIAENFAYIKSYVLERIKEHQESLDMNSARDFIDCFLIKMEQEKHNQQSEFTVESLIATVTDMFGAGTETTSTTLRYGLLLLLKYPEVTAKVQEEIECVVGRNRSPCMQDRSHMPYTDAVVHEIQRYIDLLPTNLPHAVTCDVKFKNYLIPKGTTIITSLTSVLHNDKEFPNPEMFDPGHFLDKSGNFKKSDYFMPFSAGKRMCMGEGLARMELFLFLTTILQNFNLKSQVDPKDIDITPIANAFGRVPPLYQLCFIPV

[12] = biological target: T8, CYP1B1 (Homo sapiens, UniProt Q16678)
T8 sequence (Q16678 1-543): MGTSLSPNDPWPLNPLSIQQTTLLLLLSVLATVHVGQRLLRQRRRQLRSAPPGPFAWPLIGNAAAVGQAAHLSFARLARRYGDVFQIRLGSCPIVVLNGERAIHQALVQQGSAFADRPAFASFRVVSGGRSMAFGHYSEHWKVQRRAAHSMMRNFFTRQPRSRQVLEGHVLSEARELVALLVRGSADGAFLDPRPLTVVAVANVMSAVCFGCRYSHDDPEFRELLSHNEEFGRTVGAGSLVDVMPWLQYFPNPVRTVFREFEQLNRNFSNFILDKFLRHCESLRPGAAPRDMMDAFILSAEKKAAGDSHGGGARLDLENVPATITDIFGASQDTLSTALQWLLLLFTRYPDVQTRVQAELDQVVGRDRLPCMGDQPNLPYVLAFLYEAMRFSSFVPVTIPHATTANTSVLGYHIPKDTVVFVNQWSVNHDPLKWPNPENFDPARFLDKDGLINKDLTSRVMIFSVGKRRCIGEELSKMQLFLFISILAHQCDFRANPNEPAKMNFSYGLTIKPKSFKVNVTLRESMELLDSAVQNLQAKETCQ

Row | role towards CYP1A1 (substrate / inhibitor / inducer) [1] | role towards CYP2B6 (substrate / inhibitor / inducer) [3] | role towards CYP2D6 (substrate / inhibitor / inducer) [5] | role towards CYP2C8 (substrate / inhibitor / inducer) [8] | role towards CYP3A4 (substrate / inhibitor / inducer) [9] | other results | Structure (SMILES)
1 | Inhibitor |  |  |  |  |  | O=c1cc(-c2ccc(O)cc2)oc2cc(O)cc(O)c12 [Apigenin, apigenin]
2 |  | Substrate; also recorded: inhibitor | inhibitor |  |  | role towards CYP2C9 (substrate / inhibitor / inducer) [2]: inhibitor; role towards CYP2C19 (substrate / inhibitor / inducer) [4]: inhibitor | O=C1Nc2ccc(Cl)cc2[C@@](C#CC2CC2)(C(F)(F)F)O1 [Efavirenz, efavirenz]
3 | Inhibitor |  |  | Inhibitor | Inhibitor | role towards CYP11B1 (substrate / inhibitor / inducer) [6]: Inhibitor; role towards CYP1A2 (substrate / inhibitor / inducer) [7]: Inhibitor; role towards CYP19 (substrate / inhibitor / inducer) [10]: Inhibitor | O=c1c(O)c(-c2ccc(O)c(O)c2)oc2cc(O)cc(O)c12 [Quercetin, quercetin]
4 | Inhibitor | Inhibitor | Substrate | Inhibitor; also recorded: Substrate |  |  | CC1=C(/C=C/C(C)=C/C=C/C(C)=C/CO)C(C)(C)CCC1 [Vitamin A retinol, retinol]
5 | Substrate |  |  | Substrate | Substrate | role towards CYP1A2 (substrate / inhibitor / inducer) [7]: Substrate; role towards CYP2C18 (substrate / inhibitor / inducer) [11]: Substrate | CC(=O)CC(c1ccccc1)c1c(O)c2ccccc2oc1=O (stereo not drawn) [Warfarin, warfarin]
6 |  |  |  |  | Substrate | role towards CYP3A4 (substrate / inhibitor / inducer) ([9]; listed as docetaxel): substrate; role towards CYP1B1 (substrate / inhibitor / inducer) [12]: Substrate; also recorded: inhibitor | CC(=O)O[C@@]12CO[C@@H]1C[C@H](O)[C@@]1(C)C(=O)[C@H](O)C3=C(C)[C@@H](OC(=O)[C@H](O)[C@@H](NC(=O)OC(C)(C)C)c4ccccc4)C[C@@](O)([C@@H](OC(=O)c4ccccc4)[C@H]21)C3(C)C [Docetaxel, docetaxel]
7 |  |  |  |  | inhibitor | role towards CYP11B1 (substrate / inhibitor / inducer) [6]: Inhibitor | O=C1C[C@@H](c2ccc(O)cc2)Oc2cc(O)cc(O)c21 [Naringenin, naringenin]
8 |  |  | inhibitor |  | Substrate; also recorded: inhibitor |  | COc1cccc2c1C(=O)c1c(O)c3c(c(O)c1C2=O)C[C@@](O)(C(=O)CO)C[C@@H]3O[C@H]1C[C@H](N)[C@H](O)[C@H](C)O1 [Doxorubicin, doxorubicin]
9 |  | inducer |  |  |  | role towards CYP2C18 (substrate / inhibitor / inducer) [11]: inducer | CO[C@H]1/C=C/O[C@@]2(C)Oc3c(C)c(O)c4c(O)c(c(/C=N/N5CCN(C)CC5)c(O)c4c3C2=O)NC(=O)/C(C)=C\C=C\[C@H](C)[C@H](O)[C@@H](C)[C@@H](O)[C@@H](C)[C@H](OC(C)=O)[C@@H]1C [Rifampin, rifampin]
10 |  |  |  |  | Substrate; also recorded: inhibitor |  | CC(=O)O[C@H]1C(=O)[C@@]2(C)[C@H]([C@H](OC(=O)c3ccccc3)[C@]3(O)C[C@H](OC(=O)[C@H](O)[C@@H](NC(=O)c4ccccc4)c4ccccc4)C(C)=C1C3(C)C)[C@]1(OC(C)=O)CO[C@@H]1C[C@@H]2O [Paclitaxel, paclitaxel]
